US8158389B2, “Products and methods for in vivo secretion of monatin” (priority 2005, dated 2012)
Several values for one entry are separate records, joined by “and”; a condition that tells them apart may be missing. Identical values can stand only once.

Experiments:
E. coli MG1655 ΔAcrAB [1] = experiment: Monatin excretion with 2.5 mM sodium decanoate, E. coli MG1655 ΔAcrAB strains with pUC19, robA, ramA or baeR (24, 30, 48 h); format: cell-based, Escherichia coli
Description: Conditions for the treatments included 250 rpm agitation throughout and 37° C. up to induction, then, 30° C. following induction. At 0.30-0.50 OD600 nm, induction of the plasmid genes was initiated. At induction, 1.0 mM IPTG, 0.5% L-arabinose, 0.5 mM pyridoxine hydrochloride, and 0.2 mLs of Balch's vitamins were added. Additions of 10 g/L L-tryptophan, 10 g/L sodium pyruvate, 0.04 mM pyridoxal-5′-phosphate (“PLP”) and 0.2% Tween® 20 (polyoxyethylene 20-sorbitan monolaurate) were made 3 hours following induction. Some treatments included 2.5 mM sodium decanoate addition at 3 hours following induction.
Conditions for the treatments included 250 rpm agitation throughout and 37° C. up to induction, then, 30° C. following induction. At an OD600 nm between 0.30-0.50, induction of the plasmid genes was initiated. At induction, 1.0 mM IPTG, 0.5% L-arabinose, 0.5 mM pyridoxine hydrochloride, and 0.2 mLs of Balch's vitamins were added. Additions of 10 g/L L-tryptophan, 10 g/L sodium pyruvate, 0.04 mM pyridoxal-5′-phosphate (“PLP”) and 0.2% Tween® 20 (polyoxyethylene 20-sorbitan monolaurate) were made 3 hours following induction. Some treatments included 2.5 mM sodium decanoate addition at 3 hours following induction.
Conditions for the treatments included 250 rpm agitation throughout and 37° C. up to induction, then, 30° C. following induction. At 0.35-0.38 OD600 nm, induction of the plasmid genes was initiated. At induction, 1.0 mM IPTG, 0.5% L-arabinose, 0.5 mM pyridoxine hydrochloride, and 0.2 mLs of Balch's vitamins were added. Additions of 10 g/L L-tryptophan, 10 g/L sodium pyruvate, 0.04 mM pyridoxal-5′-phosphate (“PLP”) and 0.2% Tween® 20 (polyoxyethylene 20-sorbitan monolaurate) were made 3.5 hours following induction. At 24 hours after inoculation, another 10 g/L increment of sodium pyruvate was added to each flask. Some treatments included 2.5 mM sodium decanoate addition at 3.5 hours following induction.

E. coli MG1655 ΔAcrAB [2] = experiment: Monatin excretion with 2.5 mM sodium decanoate, E. coli MG1655 ΔAcrAB with or without marA (24, 30, 72 h); format: cell-based, Escherichia coli; settings: n = 2
AcrAB efflux pump = biological target: T1, AcrAB efflux pump (Escherichia coli, UniProt P31224); experiment: Monatin excretion with 2.5 mM sodium decanoate treatment, strains with or without tolC overexpression; format: cell-based; settings: for Monatin/dry cell weight, 25 hr average / Monatin/dry cell weight, 50 hr average: n = 2
T1 construct: endogenous in cells; host or cells: E. coli BL21 (DE3) with aspCproApET32 plus pProNde with or without tolC
Description: Strains used for the experiment included E. coli BL21 (DE3) : : aspCproApET32 and tolC pProNde or pProNde without tolC. For inoculum, the E. coli strains were grown overnight at 37° C. and 250 rpm in Luria-Bertani (“LB”) medium with 100 μg/mL ampicillin and 50 μg/mL kanamycin.
For the experimental treatments, Trp-1+glucose medium, a minimal medium that has been used for increased production of tryptophan in E. coli cells (Zeman, et al. Folia Microbiol. 35:200-204, (1990)), was prepared as follows. To 800 mL nanopure water the following reagents were added: 2 g (NH4)2SO4 and 13.6 g KE2PO4. The pH was adjusted to 7.0, the volume was increased to 948 mL, and the medium was autoclaved. Following sterilization, 0.2 g MgSO4.7H2O, 0.01 g CaCl2.2H2O, and 0.5 mg FeSO4.7H2O were added to the medium in a 1.8 mL volume followed by addition of 0.2 mL of Neidhardt's micronutrient solution. Neidhardt, F. C., et al., “Culture medium for Enterobacteria,” J. Bacteriol. 119:736-746, (1974). Neidhardt's medium includes (per liter): 0.18 g (NH4)6(MO7)24-4H2O, 1.24 g H3BO3, 0.36 g CoCl2.6H2O, 0.12 g CuSO4 (anhydrous), 0.8 g MnCl2.4H2O, and 0.14 g ZnSO4.7H2O. A 50% glucose solution was prepared separately and sterile-filtered. Forty mL of glucose solution and 10 mL of 1 M 3-Morpholinopropanesulfonic acid (“MOPS”) buffer were added to the base medium (950 mL) for a 1 L final volume.
Conditions for the treatments included 30° C. throughout the experiment and 250 rpm agitation. At 0.4 OD600 nm, induction of the plasmid genes was initiated. At induction, 0.5 mM IPTG, 0.5% arabinose, 0.5 mM pyridoxine hydrochloride, and 0.2 mL of Balch's vitamins (Balch, W. E., et al., “Methanogens: reevaluation of a unique biological group,” Microbiol. Rev. 43:260-296, (1979)) were added. […] Some treatments included 2.5 mM sodium decanoate addition at 3 hours following induction.
The amount of monatin excreted was determined using the method described in Example 13.
In this example, the combination of induction of the AcrAB efflux pump with increased availability of the TolC channels was evaluated. E. coli strains overexpressing the tolC gene were additionally subjected to treatment with 2.5 mM sodium decanoate to simultaneously induce the AcrAB pumps.

[3] = ΔAcrAB::aspC proA pProNde del robA pUC19, n = 2
[4] = ΔAcrAB::aspC proA pProNde del, ramA pUC19, n = 2
[5] = ΔAcrAB::aspC proA pProNdedel, pUC19 (control), n = 2
[6] = ΔacrAB AspC ProA pProNde del BaeR pUC19, n = 2
[7] = ΔAcrAB AspC ProA pProNde del pUC19 (control)
[8] = E. coli BL21 DE3 aspC proApET32 & pProNde w/o tolC (control)
[9] = E. coli BL21 DE3 aspC proApET32 & tolCpProNde

T1 sequence (P0AE06 25-397): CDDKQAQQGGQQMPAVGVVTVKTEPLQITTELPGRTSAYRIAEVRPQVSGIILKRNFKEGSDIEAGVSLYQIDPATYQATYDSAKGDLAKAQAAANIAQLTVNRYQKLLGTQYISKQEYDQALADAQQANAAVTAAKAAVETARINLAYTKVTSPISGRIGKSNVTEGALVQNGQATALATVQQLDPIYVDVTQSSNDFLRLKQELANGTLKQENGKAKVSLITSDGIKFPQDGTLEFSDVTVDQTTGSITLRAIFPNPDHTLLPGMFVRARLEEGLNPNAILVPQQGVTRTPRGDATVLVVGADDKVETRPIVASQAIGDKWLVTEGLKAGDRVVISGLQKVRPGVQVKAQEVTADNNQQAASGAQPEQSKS
T1 sequence (P02930 23-493, further chain): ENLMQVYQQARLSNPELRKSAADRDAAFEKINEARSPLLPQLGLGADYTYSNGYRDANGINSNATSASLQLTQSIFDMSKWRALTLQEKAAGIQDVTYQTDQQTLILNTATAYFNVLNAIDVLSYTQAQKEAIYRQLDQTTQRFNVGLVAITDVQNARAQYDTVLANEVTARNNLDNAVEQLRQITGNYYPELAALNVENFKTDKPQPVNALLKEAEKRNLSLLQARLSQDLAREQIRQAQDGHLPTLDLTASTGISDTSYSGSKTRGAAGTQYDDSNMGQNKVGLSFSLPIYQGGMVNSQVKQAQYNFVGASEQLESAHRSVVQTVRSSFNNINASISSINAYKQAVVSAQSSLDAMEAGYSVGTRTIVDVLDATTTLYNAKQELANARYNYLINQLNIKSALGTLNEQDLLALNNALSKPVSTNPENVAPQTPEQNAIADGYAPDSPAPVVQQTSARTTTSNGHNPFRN
T1 sequence (P31224 whole entry): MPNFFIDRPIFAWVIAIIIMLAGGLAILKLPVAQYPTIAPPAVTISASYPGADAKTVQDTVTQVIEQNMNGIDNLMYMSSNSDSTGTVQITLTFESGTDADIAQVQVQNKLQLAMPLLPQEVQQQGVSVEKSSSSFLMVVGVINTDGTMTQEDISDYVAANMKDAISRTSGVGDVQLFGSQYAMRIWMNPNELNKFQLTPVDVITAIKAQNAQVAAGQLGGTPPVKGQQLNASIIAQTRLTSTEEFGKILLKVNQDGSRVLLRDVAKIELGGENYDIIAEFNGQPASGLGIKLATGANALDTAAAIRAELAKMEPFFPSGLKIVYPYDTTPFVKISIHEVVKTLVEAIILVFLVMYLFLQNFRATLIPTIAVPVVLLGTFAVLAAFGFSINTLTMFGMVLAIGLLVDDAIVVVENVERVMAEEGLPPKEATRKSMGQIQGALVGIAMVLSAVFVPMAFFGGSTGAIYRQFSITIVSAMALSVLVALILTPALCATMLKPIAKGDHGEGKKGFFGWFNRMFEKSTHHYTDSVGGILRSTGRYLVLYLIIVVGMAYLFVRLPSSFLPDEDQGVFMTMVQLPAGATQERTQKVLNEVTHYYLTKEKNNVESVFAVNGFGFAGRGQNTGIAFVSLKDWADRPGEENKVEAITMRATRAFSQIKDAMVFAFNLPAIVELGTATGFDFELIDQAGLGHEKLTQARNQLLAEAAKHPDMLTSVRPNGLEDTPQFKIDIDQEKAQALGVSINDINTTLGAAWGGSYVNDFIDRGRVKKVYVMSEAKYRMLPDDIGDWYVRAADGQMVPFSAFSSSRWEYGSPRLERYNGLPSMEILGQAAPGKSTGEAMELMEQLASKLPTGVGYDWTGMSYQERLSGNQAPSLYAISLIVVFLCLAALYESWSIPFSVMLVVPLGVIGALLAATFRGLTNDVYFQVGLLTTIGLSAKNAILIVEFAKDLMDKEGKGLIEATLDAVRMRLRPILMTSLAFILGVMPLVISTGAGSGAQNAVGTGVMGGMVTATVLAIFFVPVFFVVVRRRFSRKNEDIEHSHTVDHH

**Q.** CCCCCCCCCC(=O)[O-].[Na+] [sodium decanoate] was tested. Which “Monatin/dcw, 24 hours” value (E. coli MG1655 ΔAcrAB [1]; [3]) did it give?
**A.** 45.7 mg/g

**Q.** What about the “Monatin/dcw, 30 hours” value (E. coli MG1655 ΔAcrAB [1]; [3]) of the same molecule?
**A.** 58.6 mg/g

**Q.** And the “Monatin/dcw, 48 hours” value (E. coli MG1655 ΔAcrAB [1]; [3])?
**A.** 81.7 mg/g

**Q.** And the “Monatin/dcw, 24 hours” value (E. coli MG1655 ΔAcrAB [1]; [4])?
**A.** 32.3 mg/g

**Q.** And the “Monatin/dcw, 30 hours” value (E. coli MG1655 ΔAcrAB [1]; [4])?
**A.** 41.7 mg/g

**Q.** What about the “Monatin/dcw, 48 hours” value (E. coli MG1655 ΔAcrAB [1]; [4]) of the same molecule?
**A.** 61.1 mg/g

**Q.** What about the “Monatin/dcw, 24 hours” value (E. coli MG1655 ΔAcrAB [1]; [5]) of the same molecule?
**A.** 10.7 mg/g

**Q.** And the “Monatin/dcw, 30 hours” value (E. coli MG1655 ΔAcrAB [1]; [5])?
**A.** 29.7 mg/g

**Q.** And the “Monatin/dcw, 48 hours” value (E. coli MG1655 ΔAcrAB [1]; [5])?
**A.** 39.3 mg/g

**Q.** What about the “Mean monatin per dry cell weight, 24 hours” value (E. coli MG1655 ΔAcrAB [1]; [6]) of the same molecule?
**A.** 34.4 mg/g

**Q.** What about the “Mean monatin per dry cell weight, 30 hours” value (E. coli MG1655 ΔAcrAB [1]; [6]) of the same molecule?
**A.** 85.0 mg/g

**Q.** What about the “Mean monatin per dry cell weight, 48 hours” value (E. coli MG1655 ΔAcrAB [1]; [6]) of the same molecule?
**A.** 137.3 mg/g

**Q.** What about the “Mean monatin per dry cell weight, 24” value (E. coli MG1655 ΔAcrAB [2]; [7]) of the same molecule?
**A.** 22.2 mg/g

**Q.** What about the “Mean monatin per dry cell weight, 30” value (E. coli MG1655 ΔAcrAB [2]; [7]) of the same molecule?
**A.** 20.6 mg/g

**Q.** And the “Mean monatin per dry cell weight, 72” value (E. coli MG1655 ΔAcrAB [2]; [7])?
**A.** 62.6 mg/g

**Q.** What about the “Mean monatin per dry cell weight, 24” value (E. coli MG1655 ΔAcrAB [2]; ΔAcrAB with marA insert) of the same molecule?
**A.** 54.6 mg/g

**Q.** And the “Mean monatin per dry cell weight, 30” value (E. coli MG1655 ΔAcrAB [2]; ΔAcrAB with marA insert)?
**A.** 56.0 mg/g

**Q.** What about the “Mean monatin per dry cell weight, 72” value (E. coli MG1655 ΔAcrAB [2]; ΔAcrAB with marA insert) of the same molecule?
**A.** 209.0 mg/g

**Q.** What about the “Monatin/dry cell weight, 25 hr” value (AcrAB efflux pump; [8]) of the same molecule?
**A.** 0.19 mg monatin/g dcw and 0.17 mg monatin/g dcw

**Q.** And the “Monatin/dry cell weight, 50 hr” value (AcrAB efflux pump; [8])?
**A.** 0.09 mg monatin/g dcw and 0.11 mg monatin/g dcw

**Q.** And the “Monatin/dry cell weight, 25 hr” value (AcrAB efflux pump; [9])?
**A.** 8.88 mg monatin/g dcw and 12.19 mg monatin/g dcw

**Q.** And the “Monatin/dry cell weight, 50 hr” value (AcrAB efflux pump; [9])?
**A.** 7.99 mg monatin/g dcw and 10.23 mg monatin/g dcw

**Q.** And the “Monatin/dry cell weight, 25 hr average” value (AcrAB efflux pump; pProNde w/o tolC (control))?
**A.** 0.18 mg monatin/g dcw

**Q.** What about the “Monatin/dry cell weight, 50 hr average” value (AcrAB efflux pump; pProNde w/o tolC (control)) of the same molecule?
**A.** 0.10 mg monatin/g dcw

**Q.** And the “Monatin/dry cell weight, 25 hr average” value (AcrAB efflux pump; tolCpProNde)?
**A.** 10.53 mg monatin/g dcw

**Q.** What about the “Monatin/dry cell weight, 50 hr average” value (AcrAB efflux pump; tolCpProNde) of the same molecule?
**A.** 9.11 mg monatin/g dcw
